# Laboratory results: patent US20020146823A1, “Method for promoting hematopoietic and mesenchymal cell proliferation and differentiation” (The University of Southern California, priority 1997, published 2002)
# What was measured:
# [1] = tested on: Rat Peritoneal Macrophages; experiment: Phagocytic capability of rat peritoneal macrophages (opsonized yeast ingestion); assay type: cell-based, Sprague Dawley rats
# Experimental: Resident peritoneal macrophages have very little phagocytic activity. Exposure of macrophages to inflammatory or activating agents will increase this macrophage function. Resident peritoneal macrophages were harvested from C57B1/6 mice or Sprague Dawley rats and resuspended at a concentration of 1×10^6 cells/ml in phosphate buffered saline (PBS). Five separate 0.5 ml cell aliquots were placed on a glass coverslip in a 35 mm petri dish. Prior to incubation, either 0.5 ml of PBS, AII, or AII analogues or fragments at between 1-1000 ug/ml final concentration was added to the individual cover slips. The dishes containing the cover slips were then incubated at 37° C. for 4 hours, after which the cover slips were washed 3 to 6 times with PBS. Opsonized yeast particles (Sigma Chemical Co.) (yeast opsonized with adult serum from the same species as that under study) were added to the cover slips and incubated for 2 hours, after which the cover slips were again washed with PBS and inverted onto a glass slide. The number of macrophages that ingested yeast and the number of yeast per macrophage ingested was then determined microscopically. At least 100 macrophages per coverslip were counted. The data from this study are summarized in Tables 3 and 4 and FIGS. 1 and 2.
# [2] = tested on: rat peritoneal macrophages; experiment: Respiratory burst (hydrogen peroxide generation) in rat peritoneal macrophages; assay type: cell-based; conditions: alone and in response to PMA; 4 hours exposure
# Experimental: (§1) The respiratory burst of leukocytes (macrophages and polymorphonuclear neutrophils) is one component of the mediator system used to kill bacteria. As with phagocytosis, the level of this respiratory burst activity in resident macrophages is low. […] Studies were conducted to assess the effect of in vitro exposure of murine or rat peritoneal macrophages and human peripheral blood mononuclear cells (PBMC) to various concentrations of AII on the capacity to generate hydrogen peroxide via the respiratory burst system. For the human studies, five different donors were examined.
# The murine or rat peritoneal cells were harvested by lavage with 5-15 ml of cold PBS with 0.5% bovine serum albumin. The human PBMC were harvested by venipuncture from normal human volunteers and isolated from peripheral blood by Ficoll Hypaque density centrifugation. After isolation, the cells were resuspended at 1×10^6 cells/ml and placed at 100 μl per well into 96 well plates. The cells were incubated with various concentrations of AII or AII analogues and fragments for 4 hours at 37° C. The cells were then preloaded with a fluorescent probe for hydrogen peroxide, 2,7 dichlorofluorescein acetate, which is nonfluorescent in the absence of hydrogen peroxide. […] One hour after stimulation the level of fluorescence produced was measured on a Cytofluor 2350 multiwell fluorometer.
# [3] = tested on: human peripheral blood mononuclear cells (PBMC); experiment: Respiratory burst (hydrogen peroxide generation) in human PBMC; assay type: cell-based; conditions: alone and in response to PMA; 4 hours exposure; five donors
# Experimental: as §1
# The murine or rat peritoneal cells were harvested by lavage with 5-15 ml of cold PBS with 0.5% bovine serum albumin. The human PBMC were harvested by venipuncture from normal human volunteers and isolated from peripheral blood by Ficoll Hypaque density centrifugation. After isolation, the cells were resuspended at 1×10^6 cells/ml and placed at 100 μl per well into 96 well plates. The cells were incubated with various concentrations of AII or AII analogues and fragments for 4 hours at 37° C. The cells were then preloaded with a fluorescent probe for hydrogen peroxide, 2,7 dichlorofluorescein acetate, which is nonfluorescent in the absence of hydrogen peroxide. Fifteen minutes later, 10 ng/ml of phorbol myristate acetate (+PMA) or PBS (−PMA) was added to stimulate the production of hydrogen peroxide. One hour after stimulation the level of fluorescence produced was measured on a Cytofluor 2350 multiwell fluorometer.
# [4] = tested on: murine mesenchymal stem cells; experiment: GM-CSF secretion by mouse mesenchymal stem cells (ELISA); assay type: cell-based, C57B1/6 mice; conditions: 0.01 to 100 μg/ml; 24, 48 or 72 hours
# Experimental: One factor whose production is induced during differentiation of mesenchymal stromal cells is granulocyte-macrophage-colony stimulating factor (GM-CSF). Therefore, the effect of AII on the differentiation of mesenchymal cells was assessed by the production of colony stimulating factors, specifically GM-CSF, into the culture supernatant.
# Bone marrow cells were harvested from the femur and tibia of C57B1/6 mice (Battin and Kingdom, Gilroy, Calif.) with saline containing 2% fetal calf serum. Thereafter, the red blood cells were lysed by brief exposure to a hypotonic ammonium chloride solution. The nucleated cells were then resuspended in 3 ml of […] phosphate buffered saline (PBS; pH 7.2) and rapidly layered over 7 ml of Percoll (70% Percoll gradient separation). This combination of nucleated bone marrow cells and Percoll were centrifuged at 1800 rpm for 20 minutes. After centrifugation, the cells in the upper 25% of the Percoll gradient were harvested and washed 3 times with PBS to remove excess Percoll. The cells were then resuspended at 4×10^5 cells/ml in alpha minimal essential medium containing 10% horse serum, 10% fetal calf serum and 5×10^−5 M 2-mercaptoethanol. […]
# After all samples were collected, the level of GM-CSF in the supernatant was measured by Quantikine ELISA (R & D Systems, Minneapolis, Minn.) according to the manufacturer's instructions.
# [5] = tested on: murine bone marrow stem cells; conditions: cited from earlier work
# AT2 receptor = molecular target: T1, AT2 receptor (Homo sapiens, UniProt P50052); conditions: cited from earlier work
# T1 sequence (P50052 1-363): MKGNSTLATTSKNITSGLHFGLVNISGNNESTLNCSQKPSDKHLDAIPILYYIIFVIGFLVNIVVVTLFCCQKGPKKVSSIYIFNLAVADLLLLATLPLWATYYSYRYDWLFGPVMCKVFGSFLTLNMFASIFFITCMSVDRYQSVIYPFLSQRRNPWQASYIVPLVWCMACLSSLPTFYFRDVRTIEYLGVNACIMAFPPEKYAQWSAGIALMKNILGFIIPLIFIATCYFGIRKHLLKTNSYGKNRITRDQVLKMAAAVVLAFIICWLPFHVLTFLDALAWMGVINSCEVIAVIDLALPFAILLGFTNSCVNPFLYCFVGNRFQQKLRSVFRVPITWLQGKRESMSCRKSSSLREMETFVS
substance,measurement,setting,value
"Asp-Arg-Val-Tyr-Ile-His-Pro-Phe (DRVYIHPF; printed: Asp-Arg-Val-Tyr-Ile-His-Pro-Phe) [AII, octapeptide present in humans and other species; known pressor agent, commercially available]",#/Cell,[1]; peptide 100 μg/ml,1.14
same,% w/Yeast,[1]; peptide 100 μg/ml,35.7%
same,Number of Macrophages with Yeast (Yeast Number) 0,[1]; peptide 100 μg/ml,90
same,Number of Macrophages with Yeast (Yeast Number) 1-3,[1]; peptide 100 μg/ml,30
same,Number of Macrophages with Yeast (Yeast Number) ≧7,[1]; peptide 100 μg/ml,0
same,#/Cell,[1]; peptide 1000 μg/ml,2.86
same,% w/Yeast,[1]; peptide 1000 μg/ml,70.4%
same,Number of Macrophages with Yeast (Yeast Number) 0,[1]; peptide 1000 μg/ml,50
same,Number of Macrophages with Yeast (Yeast Number) 1-3,[1]; peptide 1000 μg/ml,54
same,Number of Macrophages with Yeast (Yeast Number) 4-6,[1]; peptide 1000 μg/ml,40
same,Number of Macrophages with Yeast (Yeast Number) ≧7,[1]; peptide 1000 μg/ml,25
same,ability of leukocytes to generate hydrogen peroxide,[2],increased the ability of leukocytes to generate hydrogen peroxide both alone and in response to stimulation with PMA
same,ability of leukocytes to generate hydrogen peroxide,[3],increased the ability of leukocytes to generate hydrogen peroxide both alone and in response to stimulation with PMA
same,production of GM-CSF,[4],induced an increase
same,formation of colonies,[5]; absence of exogenous colony stimulating factors,increases the formation of colonies
same,number and size of colonies formed,[5]; lineage-negative bone marrow cells expressing Sca1,increased the number and size of colonies formed only in the presence of exogenous colony stimulating factors
same,affinity for AT2 relative to AT1,AT2 receptor,100 times
